Data reported in publication PMC10689823, “Discovery of a Drug-like, Natural Product-Inspired DCAF11 Ligand Chemotype” (Nature Communications, 2023).
Where “and” joins values, the source holds several entries; their conditions need not be identical. Equal entries are not always repeated.

How the values were obtained:
Format in all cases: cell-based
PDEδ = PDEδ (Homo sapiens, UniProt O43924); assay: PDEδ levels by Western blot in Jurkat cells; design: endogenous in cells; host or cells: Jurkat; conditions: 6 h; for PDEδ degradation activity compared with degrader 5: 10 μM
BRD2 [1] = target: T1, BRD2 (Homo sapiens, UniProt P25440); assay: BRD2 levels by Western blot in KBM7 cells (WT, DCAF11 knockout, DDB1 knockout); design: endogenous in cells; host or cells: KBM7 (WT, DCAF11 KO, DDB1 KO); conditions: 9 at 3 μM, 10 at 10 μM, 11 at 10 μM; 6 h
Protocol: (§1) Cells were washed with PBS and lysed in lysis buffer (50 mM Tris-HCl, pH 7.4, 150 mM NaCl, 1% Triton X-100, 1% sodium deoxycholate, 0.1% SDS) with complete protease inhibitor cocktail (Roche, 11836170001) for 30 min on ice. For Ramos cells, cell pellets were lysed in lysis buffer (50 mM Tris-HCl, pH 8, 150 mM NaCl, 1% NP-40, 0.5% sodium deoxycholate) with complete protease inhibitor cocktail. After centrifugation at 16,000 x g, the supernatant was transferred into a new tube and the protein concentration was determined by DC protein assay (BIO-RAD, 5000116). Proteins were separated by SDS-PAGE and transferred to a PVDF membrane (Thermo scientific, 0.45 μm, 88518). For PDEδ, BRD2, GAPDH, BRD4, Vinculin and BTK, the membranes were blocked with Intercept® Blocking Buffer (LI-COR Biosciences, 927-70001) at room temperature for 1 h. The primary antibodies for these proteins were diluted with Intercept® Blocking Buffer (1:500 for PDEδ, 1:3000 for Vinculin, and 1:1000 for other proteins) and incubated with the membranes overnight at 4 °C. Membranes were washed with PBS + 0.1% Tween 20 (PBS-T) five times and incubated with secondary antibodies conjugated to IRDye® Infrared Fluorescent Dyes (1:5000, LI-COR Biosciences) at room temperature for 1 h with protection from light. After washing the membrane, signals were visualized using the ChemiDoc MP Imaging System (BIO-RAD Laboratories). For detection of LC3B, BRD3, BLK, DCAF11, DDB1 RBX1, FIP200, V5- and FLAG-Tag the membranes were blocked with 5% milk in PBS-T at room temperature for 1 h. The primary antibodies for these proteins were diluted in 5% milk in PBS-T buffer (1:200 for BRD3, 1:1000 for other proteins) and incubated with the membranes overnight at 4 °C. Membranes were washed with PBS-T five times and incubated with HRP secondary antibodies (1:1500) at room temperature for 1 h. After washing the membrane, protein detection was performed using Western blotting detection reagent (Thermo Scientific, 34095) and the ChemiDoc MP Imaging System (BIO-RAD). Relative band intensities were quantified using Image Lab (BIO-RAD).
DCAF11- or FIP200 (RB1CC1)-targeting sgRNAs were lentivirally packaged using PEI transfection of Lenti-X cells. The viral supernatant was harvested after 72 h, cleared of cellular debris by filtration through a 0.45-µm PES filter and stored in aliquots at −80 °C. The appropriate amount of viral supernatant was transduced into KBM7 cells (1 × 10^6 cells/mL) via spinfection (2000 rpm, 1 h, 37 °C) with polybrene (8 µg/mL). Two days post transduction, the cells were selected with puromycin (1 µg/mL) for a total of 5 days, after which the knockout pools were validated via western blotting.

BRD2 [2] = target: T1, BRD2; assay: BRD2 levels by Western blot in Jurkat cells; design: endogenous in cells; host or cells: Jurkat; Hep G2; MDA-MB-231; KBM7 (WT, DCAF11 KO, DDB1 KO)
Protocol: as §1

Jurkat cells = assay: Cell viability assay (CellTiter-Glo) in Jurkat cells; conditions: for Relative cell viability (%): Jurkat cells, 72 h, Fig. 4k; for Cell viability (%) relative to DMSO: individual replicates, Supplementary Fig. 7g
Protocol: (§2) Jurkat cells (3 × 10^3) and Hep G2 cells (3.5 × 10^3) were seeded in 96-well plates in 100 μL culture medium. Cells were treated with compounds dissolved in 50 μl medium at the indicated concentration for 72 h, at the same time, one plate of cells without compounds treatment was used for the cell count at time zero. After adding 40 μl of CellTiter-Glo® reagent (Promega, G7571) to each well for 10 min at room temperature, the luminescence was measured on a Spark® Multimode Microplate Reader (Tecan). The data was analyzed by the GraphPad Prism 9.0.

[3] = as above; conditions: human, Jurkat cells
Protocol: as §2

T1 sequence (P25440 whole entry): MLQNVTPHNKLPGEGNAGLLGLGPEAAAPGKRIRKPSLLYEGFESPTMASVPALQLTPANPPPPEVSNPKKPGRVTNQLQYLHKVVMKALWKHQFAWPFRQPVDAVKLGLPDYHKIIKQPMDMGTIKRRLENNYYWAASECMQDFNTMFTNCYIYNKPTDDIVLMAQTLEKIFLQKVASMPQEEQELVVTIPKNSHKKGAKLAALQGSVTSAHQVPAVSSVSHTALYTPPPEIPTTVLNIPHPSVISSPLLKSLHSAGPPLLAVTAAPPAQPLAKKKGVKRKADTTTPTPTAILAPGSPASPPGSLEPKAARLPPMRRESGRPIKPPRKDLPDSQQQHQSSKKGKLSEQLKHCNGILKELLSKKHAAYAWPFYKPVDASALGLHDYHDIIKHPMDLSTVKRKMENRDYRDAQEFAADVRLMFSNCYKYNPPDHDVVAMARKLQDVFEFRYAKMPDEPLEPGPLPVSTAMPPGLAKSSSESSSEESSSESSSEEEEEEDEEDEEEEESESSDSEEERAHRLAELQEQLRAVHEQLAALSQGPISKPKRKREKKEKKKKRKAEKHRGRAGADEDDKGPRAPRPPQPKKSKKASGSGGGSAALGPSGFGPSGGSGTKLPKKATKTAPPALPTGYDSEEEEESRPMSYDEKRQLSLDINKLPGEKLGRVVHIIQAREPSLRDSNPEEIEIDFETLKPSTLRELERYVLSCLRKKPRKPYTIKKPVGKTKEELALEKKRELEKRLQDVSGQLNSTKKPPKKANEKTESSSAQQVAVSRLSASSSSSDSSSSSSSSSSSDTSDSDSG
Sequence of PDEδ (O43924 whole entry): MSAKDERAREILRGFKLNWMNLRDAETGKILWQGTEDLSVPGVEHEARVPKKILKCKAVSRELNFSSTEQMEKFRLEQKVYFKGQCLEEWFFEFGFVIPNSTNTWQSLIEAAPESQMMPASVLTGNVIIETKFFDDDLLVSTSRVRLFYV

Cc1ccc(-n2nc3c(=O)n(CCCC(=O)NCCc4ccc(C(=O)NCCOCCOCCOCCOc5c(Br)cc(/C=C6\C(=O)Nc7ccc(I)cc76)cc5Br)cc4)nc(C)c3c2C)cc1 [Compound 6, (Z)-N-(2-(2-(2-(2-(2,6-dibromo-4-((5-iodo-2-oxoindolin-3-ylidene)methyl)phenoxy)ethoxy)ethoxy)ethoxy)ethyl)-4-(2-(4-(3,4-dimethyl-7-oxo-2-(p-tolyl)-2,7-dihydro-6H-pyrazolo[3,4-d]pyridazin-6-yl)butanamido)ethyl)benzamide]
remaining activity at 10 µM (PDEδ; Jurkat, DMSO pretreatment 2 h, then 10 μM, 6h, Fig. 1h, read-out: PDEδ/Vinculin intensity (relative to DMSO control group)): 55.4%

Cc1sc2c(c1C)C(c1ccc(Cl)cc1)=N[C@@H](CC(=O)NCCOCCOCCOCCOc1c(Br)cc(/C=C3\C(=O)Nc4ccc(I)cc43)cc1Br)c1nnc(C)n1-2 [Compound 11]
BRD2 degradation in DCAF11 knockout (KO1 and KO2) KBM7 cells (BRD2 [1]): abolished | efficiency of BRD2 degradation, 10 versus iodo analog 11 (BRD2 [2]; 6 h): comparable efficiency of BRD2 degradation

Cc1sc2c(c1C)C(c1ccc(Cl)cc1)=NC(CC(=O)NCCOCCOCCOCCOc1c(Br)cc(C=C3C(=O)N(c4ccccc4)c4ccccc43)cc1Br)c1nnc(C)n1-2 (stereo not drawn) [Compound 49]
remaining activity at 3 µM (BRD2 [2]; Jurkat, 6 h, 3 μM, 6 h, Fig. 4j, read-out: BRD2/Vinculin intensity (relative to DMSO control group)): 12.6%

Cc1ccc(-n2nc3c(=O)n(CCCC(=O)NCCc4ccc(C(=O)NCCOCCOCCOCCOc5c(Br)cc(C=C6C(=O)Nc7cc(Br)ccc76)cc5Br)cc4)nc(C)c3c2C)cc1 [Compound 54]
PDEδ degradation activity compared with degrader 5 (PDEδ): comparable or better degradation activity | completeness of PDEδ degradation (PDEδ): did not induce complete degradation

Cc1ccc(-n2nc3c(=O)n(CCCC(=O)NCCc4ccc(C(=O)NCCOCCOCCOCCOc5c(Br)cc(C=C6C(=O)N(c7ccccc7)c7ccccc76)cc5Br)cc4)nc(C)c3c2C)cc1 [Compound 55]
PDEδ degradation activity compared with degrader 5 (PDEδ): comparable or better degradation activity | completeness of PDEδ degradation (PDEδ): did not induce complete degradation

Cc1sc2c(c1C)C(c1ccc(Cl)cc1)=N[C@@H](CC(=O)OC(C)(C)C)c1nnc(C)n1-2 [JQ1, reference compound]
Relative cell viability (%) (Jurkat cells; 10 nM, 0.01 µM): 100.371% and 106.106% | Relative cell viability (%) (Jurkat cells; 30 nM, 0.03 µM): 87.8283% and 96.2473% | Relative cell viability (%) (Jurkat cells; 100 nM, 0.1 µM): 64.4714% and 60.7516% | Relative cell viability (%) (Jurkat cells; 300 nM, 0.3 µM): 45.1617% and 37.3276% | Relative cell viability (%) (Jurkat cells; 1000 nM, 1 µM): 18.9902% and 17.7354% | Relative cell viability (%) (Jurkat cells; 3000 nM, 3 µM): 9.435% and 7.082% | Relative cell viability (%) (Jurkat cells; 10000 nM, 10 µM): 4.364% and 3.464% | Relative cell viability (%) (Jurkat cells; 30000 nM, 30 µM): 1.255% and 1.237% | Cell viability (%) relative to DMSO (Jurkat cells; concentration 10 nmol/L): 103.479% and 107.527% | Cell viability (%) relative to DMSO (Jurkat cells; concentration 30 nmol/L): 101.884% and 107.914% | Cell viability (%) relative to DMSO (Jurkat cells; concentration 100 nmol/L): 89.9727% and 100.534% | Cell viability (%) relative to DMSO (Jurkat cells; concentration 300 nmol/L): 75.4252% and 84.9435% | Cell viability (%) relative to DMSO (Jurkat cells; concentration 1000 nmol/L): 55.019% and 62.5193% | Cell viability (%) relative to DMSO (Jurkat cells; concentration 3000 nmol/L): 46.7418% and 50.7086% | Cell viability (%) relative to DMSO (Jurkat cells; concentration 10000 nmol/L): 42.9072% and 46.8783% | Cell viability (%) relative to DMSO (Jurkat cells; concentration 30000 nmol/L): 37.1426% and 41.0159% | viability at 72 h, 10 nmol/L ([3]; concentration 10 nmol/L, individual replicates, Supplementary Fig. 7g, read-out: Cell viability (%) relative to DMSO): 94.3% | viability at 72 h, 30 nmol/L ([3]; concentration 30 nmol/L, individual replicates, Supplementary Fig. 7g, read-out: Cell viability (%) relative to DMSO): 90.8% | viability at 72 h, 100 nmol/L ([3]; concentration 100 nmol/L, individual replicates, Supplementary Fig. 7g, read-out: Cell viability (%) relative to DMSO): 82.6% | viability at 72 h, 300 nmol/L ([3]; concentration 300 nmol/L, individual replicates, Supplementary Fig. 7g, read-out: Cell viability (%) relative to DMSO): 69% | viability at 72 h, 1000 nmol/L ([3]; concentration 1000 nmol/L, individual replicates, Supplementary Fig. 7g, read-out: Cell viability (%) relative to DMSO): 54.6% | viability at 72 h, 3000 nmol/L ([3]; concentration 3000 nmol/L, individual replicates, Supplementary Fig. 7g, read-out: Cell viability (%) relative to DMSO): 46% | viability at 72 h, 10000 nmol/L ([3]; concentration 10000 nmol/L, individual replicates, Supplementary Fig. 7g, read-out: Cell viability (%) relative to DMSO): 46.5% | viability at 72 h, 30000 nmol/L ([3]; concentration 30000 nmol/L, individual replicates, Supplementary Fig. 7g, read-out: Cell viability (%) relative to DMSO): 40.9% | viability at 72 h, 0.01 µM ([3]; 72 h, 10 nM, Fig. 4k, read-out: Relative cell viability (%)): 89.4% | viability at 72 h, 0.03 µM ([3]; 72 h, 30 nM, Fig. 4k, read-out: Relative cell viability (%)): 77.8% | viability at 72 h, 0.1 µM ([3]; 72 h, 100 nM, Fig. 4k, read-out: Relative cell viability (%)): 52.1% | viability at 72 h, 0.3 µM ([3]; 72 h, 300 nM, Fig. 4k, read-out: Relative cell viability (%)): 35% | viability at 72 h, 1 µM ([3]; 72 h, 1000 nM, Fig. 4k, read-out: Relative cell viability (%)): 18.1% | viability at 72 h, 3 µM ([3]; 72 h, 3000 nM, Fig. 4k, read-out: Relative cell viability (%)): 8.86% | viability at 72 h, 10 µM ([3]; 72 h, 10000 nM, Fig. 4k, read-out: Relative cell viability (%)): 4.59% | viability at 72 h, 30 µM ([3]; 72 h, 30000 nM, Fig. 4k, read-out: Relative cell viability (%)): 1.85% | BRD2 protein levels, ligands alone or in combination (BRD2 [2]; 3 μM, 4 h): did not reduce BRD2 protein levels

Cc1ncsc1-c1ccc(CNC(=O)[C@@H]2C[C@@H](O)CN2C(=O)[C@@H](NC(=O)COCCOCCOCCNC(=O)C[C@@H]2N=C(c3ccc(Cl)cc3)c3c(sc(C)c3C)-n3c(C)nnc32)C(C)(C)C)cc1 [MZ1, reference compound]
BRD2 levels after washout (BRD2 [2]; 10 μM, 5 h prior to washout): can be washed out
